# Test results taken from ChEMBL document CHEMBL1159068, “Discovery and SAR of small molecule PAR1 antagonists” (Bioorg Med Chem Lett, 2010).
# What was measured:
# [1] = biological target: T1, Proteinase-activated receptor 1 (Homo sapiens) (UniProt P25116); assay: Antagonist activity at PAR1 expressed in CHO cells assessed as inhibition of SFLLR-induced intracellular calcium release at 10 uM; assay type: functional, cell-based
# T1 sequence (whole entry): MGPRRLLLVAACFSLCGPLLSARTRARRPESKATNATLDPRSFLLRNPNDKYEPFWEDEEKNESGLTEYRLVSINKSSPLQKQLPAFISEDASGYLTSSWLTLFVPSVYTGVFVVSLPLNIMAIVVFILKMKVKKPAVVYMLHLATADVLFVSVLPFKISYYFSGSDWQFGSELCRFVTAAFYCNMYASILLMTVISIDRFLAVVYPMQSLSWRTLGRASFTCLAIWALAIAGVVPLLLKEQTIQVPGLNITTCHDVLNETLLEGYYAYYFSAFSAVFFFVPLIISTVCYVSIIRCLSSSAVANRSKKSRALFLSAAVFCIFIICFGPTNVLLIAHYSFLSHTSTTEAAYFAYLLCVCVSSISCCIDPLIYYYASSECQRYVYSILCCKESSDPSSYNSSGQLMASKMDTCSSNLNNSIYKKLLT
# [2] = system: Platelet; assay: Inhibition of SFLLR-induced aggregation in human platelets; assay type: functional
# [3] = system: Rattus norvegicus; assay: Antithrombotic activity in rat arterio-venous shunt model of thrombosis assessed as increase in occlusion time at 1.25 mg/kg, iv; assay type: functional
# [4] = Metabolic stability in human liver microsomes assessed as parent compound remaining after 60 mins; assay type: ADME, Microsome; conditions: read-out: Stability
# [5] = Metabolic stability in rat liver microsomes assessed as parent compound remaining after 60 mins; assay type: ADME, Microsome; conditions: read-out: Stability
# [6] = biological target: T1, Proteinase-activated receptor 1 (Homo sapiens); assay: Antagonist activity at PAR1 expressed in CHO cells assessed as inhibition of SFLLR-induced intracellular calcium release; assay type: functional, cell-based
inhibition [1] [%],remaining at 1 h [4] [%],remaining at 1 h [5] [%],pKb [6],Compound,pKb [2],Activity [3] [%]
99,–,–,–,CCOC(c1ccc(Cl)cc1)C(SC(C)(C)C)n1cncn1 (stereo not drawn),4.64,–
98,–,–,–,CCOC(c1ccc(C(F)(F)F)cc1)C(OC(C)(C)C)n1cnc(C)c1 (stereo not drawn),5.2,–
20,–,–,–,CCOC(c1ccc(Cl)cc1)C(SC(C)(C)C)n1cnc(C(F)(F)F)c1 (stereo not drawn),–,–
34,–,–,–,CCOC(c1ccc(Cl)cc1)C(SC(C)(C)C)n1cnnc1 (stereo not drawn),–,–
95,–,–,–,COC(c1ccc(Cl)cc1)C(SC(C)(C)C)n1ccnc1 (stereo not drawn),5.24,–
88,28,2,–,CCCOC(c1ccc(Cl)cc1Cl)C(SC(C)(C)C)n1cnc(C)c1 (stereo not drawn),5.95,7
100,–,–,–,CCOC(c1cccc(Cl)c1)C(SC(C)(C)C)n1cnc(C)c1 (stereo not drawn),4.96,–
74,57,3,–,CCOC(c1ccc(Cl)cc1)C(CC(C)(C)C)n1ccnc1 (stereo not drawn),4.12,–
37,–,–,–,CCOC(c1ccc(C(=O)OC)cc1)C(SC(C)(C)C)n1ccnc1 (stereo not drawn),–,–
99,28,0,5.51,CCCOC(c1ccc(Cl)cc1)C(SC(C)(C)C)n1cnc(C)c1 (stereo not drawn),5.71,45
76,–,–,–,CCOC(c1cccc(OC)c1)C(SC(C)(C)C)n1ccnc1 (stereo not drawn),0,–
40,–,–,–,CCOC(c1ccc(Cl)cc1)C(SC(C)C)n1ccnc1 (stereo not drawn),–,–
88,–,–,–,CCOC(c1ccc2c(c1)OCCO2)C(SC(C)(C)C)n1ccnc1 (stereo not drawn),4.79,–
85,74,25,–,CCOC(c1ccc(Cl)cc1)C(OC(C)(C)C)n1ccnc1 (stereo not drawn),4.54,0
15,59,39,–,CCOC(c1ccc(Cl)cc1)C(n1ccnc1)[S+]([O-])C(C)(C)C (stereo not drawn),–,–
19,–,–,–,CCCCCSC(C(OCC)c1ccc(Cl)cc1)n1ccnc1 (stereo not drawn),–,–
93,–,–,–,CCCOC(c1ccc(Cl)c(Cl)c1)C(OC(C)(C)C)n1ccnc1 (stereo not drawn),5.04,–
100,–,–,–,CCOC(c1ccc(C(F)(F)F)cc1)C(SC(C)(C)C)n1ccnc1 (stereo not drawn),5.38,–
97,–,–,–,CCCOC(c1ccccc1Cl)C(SC(C)(C)C)n1cnc(C)c1 (stereo not drawn),5.14,–
92,–,–,–,CCOC(c1ccccc1)C(SC(C)(C)C)n1ccnc1 (stereo not drawn),4.46,–
100,–,–,–,CCOC(c1ccc(Br)cc1)C(SC(C)(C)C)n1cnc(C)c1 (stereo not drawn),5.73,–
98,57,3,–,CCOC(c1ccc(Cl)cc1Cl)C(OC(C)(C)C)n1cnc(C)c1 (stereo not drawn),5.32,0
76,–,–,–,CCCCSC(C(OCC)c1ccc(Cl)cc1)n1ccnc1 (stereo not drawn),4.58,–

inhibition [1] [%],remaining at 1 h [4] [%],remaining at 1 h [5] [%],pKb [6],Compound,pKb [2],Activity [3] [%]
3,–,–,–,CCOC(c1ccc(Cl)cc1)C(SC1CCCCC1)n1ccnc1 (stereo not drawn),–,–
63,–,–,–,CCOC(c1ccc(Cl)cc1)C(SC(C)(C)C)n1ccnc1C (stereo not drawn),–,–
33,–,–,–,CCCCOC(c1ccc(Cl)cc1)C(SC(C)(C)C)n1ccnc1 (stereo not drawn),–,–
100,–,–,–,CCOC(c1ccc(Br)cc1)C(SC(C)(C)C)n1ccnc1 (stereo not drawn),5.06,–
59,–,–,–,CCOC(c1ccc(Cl)cc1)C(SC(C)(C)C)n1cncc1Cl (stereo not drawn),–,–
0,–,–,–,CCOC(c1ccc(Cl)cc1)C(SC(C)(C)C)n1cccn1 (stereo not drawn),–,–
100,–,–,–,CCOC(c1ccccc1Cl)C(SC(C)(C)C)n1cnc(C)c1 (stereo not drawn),5.21,–
23,–,–,–,CC(C)(C)SC(C(OCc1ccccc1)c1ccc(Cl)cc1)n1ccnc1 (stereo not drawn),–,–
93,–,–,–,CCOC(c1ccc(Cl)cc1Cl)C(SC(C)(C)C)n1cnc(C)c1 (stereo not drawn),5.84,–
96,–,–,–,CCOC(c1ccc(Cl)cc1)C(SC(C)(C)C)n1cnc(Cl)c1 (stereo not drawn),4.6,–
99,–,–,–,CCOC(c1ccc(Cl)cc1)C(SC(C)(C)C)n1ccnc1 (stereo not drawn),5.05,–
96,–,–,–,CCCOC(c1ccc(Cl)cc1)C(SC(C)(C)C)n1ccnc1 (stereo not drawn),5.01,–
96,–,–,–,COC(c1ccc(Cl)cc1)C(SC(C)(C)C)n1cnc(C)c1 (stereo not drawn),4.42,–
98,–,–,–,CCOC(c1ccc2sccc2c1)C(SC(C)(C)C)n1ccnc1 (stereo not drawn),5.2,–
81,23,3,–,CCCOC(c1ccc(Cl)c(Cl)c1)C(OC(C)(C)C)n1cnc(C)c1 (stereo not drawn),5.73,43
18,–,–,–,CCCOC(c1ccc(F)cc1)C(OC(C)(C)C)n1ccnc1 (stereo not drawn),–,–
76,23,0,–,CCCOC(c1ccc(Br)cc1)C(SC(C)(C)C)n1cnc(C)c1 (stereo not drawn),5.99,0
11,–,–,–,CC(C)(C)SC(C(O)c1ccc(Cl)cc1)n1ccnc1 (stereo not drawn),–,–
64,–,–,–,CCOC(c1ccc(Cl)cc1)C(SC(C)(C)C)n1cnc(C)c1C (stereo not drawn),–,–
92,–,–,–,CCOC(c1ccc(Cl)cc1)C(SC(C)(C)C)n1cnc(C)c1 (stereo not drawn),5.36,–
33,–,–,–,CCOC(c1ccccc1[N+](=O)[O-])C(SC(C)(C)C)n1ccnc1 (stereo not drawn),–,–
13,35,47,–,CCOC(c1ccc(Cl)cc1)C(n1ccnc1)S(=O)(=O)C(C)(C)C (stereo not drawn),–,–
